Columns and labels:
FL5.12/Bcl-2 cells = test: FL5.12/Bcl-2 cell viability assay under IL-3 withdrawal (CellTitre Glo); type: cell-based, murine; conditions: Mus musculus, IL-3 withdrawn 48 hrs, then 24 hrs with compound
Source text: FL5.12 is an IL-3 dependent prolymphocytic murine cell line that undergoes apoptosis upon IL-3 withdrawal as a result of the upregulation of pro-apoptotic Bcl-2 proteins such as Bim and Puma. Stable overexpression of anti-apoptotic Bcl-2 protein (FL5.12/Bcl-2) protects against apoptosis induced by IL-3 withdrawal by sequestration of Bim and Puma. […] The ability of compounds to kill FL5.12/Bcl-2 cells upon IL-3 withdrawal is a direct measure of the compounds' ability to inhibit anti-apoptotic Bcl-2 protein function.
Wild type FL5.12/Bcl-2 overexpressing stable transfectants were cultured in RPMI-1640 supplemented with 2 mM L-glutamine, 10% FBS, 1 mM sodium pyruvate, 2 mM HEPES, 1% penicillin/streptomycin (Invitrogen), 57 μM β-ME, and 10% WEHI-3B conditioned medium (source of IL-3) and maintained at 37° C. containing 5% CO2. 1×10^6 cells/ml were washed 1×PBS and resuspended in medium not supplemented with 10% WEHI-3B for 48 hrs prior to cytotoxicity assays. Cells were then treated for an additional 24 hrs in the presence of various concentrations of the indicated compounds. Cell viability was assessed by CellTitre Glo assay (Promega Corp.) according to the manufacturer's recommendations.

GST-Bcl-2 = GST-Bcl-2 (Homo sapiens, UniProt P10415); test: TR-FRET binding assay, GST-Bcl-2 with F-Bak peptide probe; conditions: for Ki: TR-FRET Binding Affinity; for Binding selectivity ratio (Bcl-XL Ki/Bcl-2 Ki): TR-FRET, Bcl-XL Ki divided by Bcl-2 Ki
GST-Bcl-2, sequence (P10415 whole entry, the tested form may be a part): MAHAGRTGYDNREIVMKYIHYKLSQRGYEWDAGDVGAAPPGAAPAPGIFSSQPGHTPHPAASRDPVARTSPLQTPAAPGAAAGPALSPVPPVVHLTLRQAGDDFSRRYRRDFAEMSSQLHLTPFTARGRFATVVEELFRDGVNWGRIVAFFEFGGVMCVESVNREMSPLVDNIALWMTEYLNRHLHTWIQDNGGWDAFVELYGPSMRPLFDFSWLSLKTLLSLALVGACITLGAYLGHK
Procedure, shortened: (§1)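 Competitive TR-FRET: GST-fusion protein, fluorescent Bak peptide probe and Tb-labelled anti-GST antibody incubated with compound dilution series (starting 50 μM as 2× stock, 10% DMSO) for 3 h at RT. Excitation 340/35 nm; Ki derived via Wang's exact competitive-binding equation.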

GST-Bcl-XL = GST-Bcl-XL (Homo sapiens, UniProt Q07817); test: TR-FRET binding assay, GST-Bcl-XL with F-Bak peptide probe; conditions: TR-FRET Binding Affinity
GST-Bcl-XL, sequence (Q07817 whole entry): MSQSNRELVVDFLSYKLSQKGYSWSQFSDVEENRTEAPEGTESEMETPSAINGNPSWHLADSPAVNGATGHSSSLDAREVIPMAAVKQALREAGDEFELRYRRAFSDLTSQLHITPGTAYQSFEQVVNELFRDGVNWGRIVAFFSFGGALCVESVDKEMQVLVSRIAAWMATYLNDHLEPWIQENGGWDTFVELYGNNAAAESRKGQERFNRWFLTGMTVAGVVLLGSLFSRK
Procedure, shortened: as §1

[1] = GST-Bcl-XL, F-Bak peptide probe

SMILES	EC50 (FL5.12/Bcl-2 cells) [nM]	Ki (GST-Bcl-2) [nM]	Ki (GST-Bcl-XL; [1]) [nM]	Ki (GST-Bcl-XL) [nM]	Binding selectivity ratio (Bcl-XL Ki/Bcl-2 Ki) (GST-Bcl-2)	Ki (GST-Bcl-2; GST-Bcl-2, F-Bak peptide probe) [nM]
O=C(NS(=O)(=O)c1ccc(NCC2CCOCC2)c([N+](=O)[O-])c1)c1ccc(N2CCN(Cc3ccccc3N3CC4CCC(CC4)C3)CC2)cc1Oc1ccccc1 [Example 474, 4-{4-[2-(3-azabicyclo[3.2.2]non-3-yl)benzyl]piperazin-1-yl}-N-({3-nitro-4-[(tetrahydro-2H-pyran-4-ylmethyl)amino]phenyl}sulfonyl)-2-phenoxybenzamide]	93.4	8.1	–	–	–	–
COCCNc1ccc(S(=O)(=O)NC(=O)c2ccc(N3CCN(CC4=C(c5ccc(Cl)cc5)CC(C)(C)CC4)CC3)cc2Oc2ccc3[nH]ccc3c2)cc1[N+](=O)[O-] [Example 179, 4-(4-{[2-(4-chlorophenyl)-4,4-dimethylcyclohex-1-en-1-yl]methyl}piperazin-1-yl)-2-(1H-indol-5-yloxy)-N-({4-[(2-methoxyethyl)amino]-3-nitrophenyl}sulfonyl)benzamide]	23.5	–	> 660	–	–	–
O=C(NS(=O)(=O)c1ccc(NCC2CCOCC2)c(S(=O)(=O)C(F)(F)F)c1)c1ccc(N2CCN(Cc3ccccc3N3CC4CCC(CC4)C3)CC2)cc1Oc1ccccc1 [Example 475, 4-{4-[2-(3-azabicyclo[3.2.2]non-3-yl)benzyl]piperazin-1-yl}-2-phenoxy-N-({4-[(tetrahydro-2H-pyran-4-ylmethyl)amino]-3-[(trifluoromethyl)sulfonyl]phenyl}sulfonyl)benzamide]	223	–	–	–	–	–
CC1(C)CCC(CN2CCN(c3ccc(C(=O)NS(=O)(=O)c4ccc(NCCOC(F)(F)F)c([N+](=O)[O-])c4)c(Oc4ccc5[nH]ccc5c4)c3)CC2)=C(c2ccc(Cl)cc2)C1 [Example 300, 4-(4-{[2-(4-chlorophenyl)-4,4-dimethylcyclohex-1-en-1-yl]methyl}piperazin-1-yl)-2-(1H-indol-5-yloxy)-N-[(3-nitro-4-{[2-(trifluoromethoxy)ethyl]amino}phenyl)sulfonyl]benzamide]	62.1	–	> 660	–	–	–
O=C(NS(=O)(=O)c1ccc(NCCCN2CCOCC2)c([N+](=O)[O-])c1)c1ccc(N2CCN(Cc3ccccc3N3CC4CCC(CC4)C3)CC2)cc1Oc1ccccc1 [Example 477, 4-{4-[2-(3-azabicyclo[3.2.2]non-3-yl)benzyl]piperazin-1-yl}-N-({4-[(3-morpholin-4-ylpropyl)amino]-3-nitrophenyl}sulfonyl)-2-phenoxybenzamide]	> 1670	8.5	–	–	–	–
O=C(NS(=O)(=O)c1ccc(NCC2CCOCC2)c([N+](=O)[O-])c1)c1ccc(N2CCN(Cc3ccccc3C3=C[C@H]4C[C@@H]3C3CCCC34)CC2)cc1Oc1ccccc1 (stereo partly drawn) [Example 478, 4-(4-{2-[(4R,7S)-2,3,3a,4,7,7a-hexahydro-1H-4,7-methanoinden-5-yl]benzyl}piperazin-1-yl)-N-({3-nitro-4-[(tetrahydro-2H-pyran-4-ylmethyl)amino]phenyl}sulfonyl)-2-phenoxybenzamide]	> 5000	–	–	–	–	–
CC1(C)CCC(CN2CCN(c3ccc(C(=O)NS(=O)(=O)c4cnc(NC5CCN(C6CC6)CC5)c(Cl)c4)c(Oc4cccc5[nH]ncc45)c3)CC2)=C(c2ccc(Cl)cc2)C1 [Example 448, N-({5-chloro-6-[(1-cyclopropylpiperidin-4-yl)amino]pyridin-3-yl}sulfonyl)-4-(4-{[2-(4-chlorophenyl)-4,4-dimethylcyclohex-1-en-1-yl]methyl}piperazin-1-yl)-2-(1H-indazol-4-yloxy)benzamide]	–	0.005	–	14.6	3119.3	–
CC(=O)N1CCOC(CNc2ccc(S(=O)(=O)NC(=O)c3ccc(N4CCN(CC5=C(c6ccc(Cl)cc6)CC(C)(C)CC5)CC4)cc3Oc3cccc4[nH]cnc34)cc2[N+](=O)[O-])C1 (stereo not shown) [Example 457, N-[(4-{[(4-acetylmorpholin-2-yl)methyl]amino}-3-nitrophenyl)sulfonyl]-2-(1H-benzimidazol-4-yloxy)-4-(4-{[2-(4-chlorophenyl)-4,4-dimethylcyclohex-1-en-1-yl]methyl}piperazin-1-yl)benzamide]	–	0.045	–	331	7413.6	–
O=C(NS(=O)(=O)c1ccc(NCC2CCOCC2)c([N+](=O)[O-])c1)c1ccc(N2CCN(Cc3cc(OCCN4CCOCC4)ccc3-c3ccc(Cl)cc3)CC2)cc1Oc1ccccc1 [Example 115, 4-(4-{[4′-chloro-4-(2-morpholin-4-ylethoxy)-1,1′-biphenyl-2-yl]methyl}piperazin-1-yl)-N-({3-nitro-4-[(tetrahydro-2H-pyran-4-ylmethyl)amino]phenyl}sulfonyl)-2-phenoxybenzamide]	–	–	27.5	–	–	0.176
CC1(C)CCC(CN2CCN(c3ccc(C(=O)NS(=O)(=O)c4ccc(OCC5(F)CCOCC5)c(Cl)c4)c(Oc4cccc5[nH]ncc45)c3)CC2)=C(c2ccc(Cl)cc2)C1 [Example 464, N-({3-chloro-4-[(4-fluorotetrahydro-2H-pyran-4-yl)methoxy]phenyl}sulfonyl)-4-(4-{[2-(4-chlorophenyl)-4,4-dimethylcyclohex-1-en-1-yl]methyl}piperazin-1-yl)-2-(1H-indazol-4-yloxy)benzamide]	–	0.081	–	521	6431.8	–
CN1CCN(Nc2ccc(S(=O)(=O)NC(=O)c3ccc(N4CCN(CC5=C(c6ccc(Cl)cc6)CC(C)(C)CC5)CC4)cc3Oc3cccc4[nH]cnc34)cc2[N+](=O)[O-])CC1 [Example 453, 2-(1H-benzimidazol-4-yloxy)-4-(4-{[2-(4-chlorophenyl)-4,4-dimethylcyclohex-1-en-1-yl]methyl}piperazin-1-yl)-N-({4-[(4-methylpiperazin-1-yl)amino]-3-nitrophenyl}sulfonyl)benzamide]	–	< 0.01	–	3.63	363.0	–
CC1(C)CCC(CN2CCN(c3ccc(C(=O)NS(=O)(=O)c4ccc(NCCCN5CCOCC5)c([N+](=O)[O-])c4)c(Oc4ccc5[nH]ncc5c4)c3)CC2)=C(c2ccc(Cl)cc2)C1 [Example 20, 4-(4-{[2-(4-chlorophenyl)-4,4-dimethylcyclohex-1-en-1-yl]methyl}piperazin-1-yl)-2-(1H-indazol-5-yloxy)-N-({4-[(3-morpholin-4-ylpropyl)amino]-3-nitrophenyl}sulfonyl)benzamide]	–	–	77.6	–	–	2.36
CC1(C)CCC(CN2CCN(c3ccc(C(=O)NS(=O)(=O)c4ccc(NCC5(N)CCOCC5)c([N+](=O)[O-])c4)c(Oc4ccc5[nH]ccc5c4)c3)CC2CO)=C(c2ccc(Cl)cc2)C1 (stereo not shown) [Example 237, N-[(4-{[(4-aminotetrahydro-2H-pyran-4-yl)methyl]amino}-3-nitrophenyl)sulfonyl]-4-[4-{[2-(4-chlorophenyl)-4,4-dimethylcyclohex-1-en-1-yl]methyl}-3-(hydroxymethyl)piperazin-1-yl]-2-(1H-indol-5-yloxy)benzamide]	–	–	268	–	–	0.401
CC1(C)CCC(CN2CCN(c3ccc(C(=O)NS(=O)(=O)c4cnc(OCC5CCC(F)(F)CC5)c(Cl)c4)c(Oc4cccc5[nH]cnc45)c3)CC2)=C(c2ccc(Cl)cc2)C1 [Example 463, 2-(1H-benzimidazol-4-yloxy)-N-({5-chloro-6-[(4,4-difluorocyclohexyl)methoxy]pyridin-3-yl}sulfonyl)-4-(4-{[2-(4-chlorophenyl)-4,4-dimethylcyclohex-1-en-1-yl]methyl}piperazin-1-yl)benzamide]	–	0.007	–	43.9	6042.9	–

Source: patent US9073855B2, “BCL-2 selective apoptosis-inducing agents for the treatment of cancer and immune diseases” (AbbVie Inc., priority 2008, dated 2015)
